Results reported in the supplement of paper PMC10307832.

Key:
Assay in all cases: relative viability (nuclei count vs DMSO), 5 days (fraction); higher = more cells survive
[1] = compound: CCn1c(-c2nonc2N)nc2c(C#CC(C)(C)O)ncc(OC[C@H]3CCCNC3)c21 + COc1cccc2cc(-c3nc([C@H]4CC[C@H](C(=O)O)CC4)n4ncnc(N)c34)[nH]c12 [OSI-027] (partner 0.5 µM)
Method in brief: (§1)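 Relative viability is defined as nuclei in treated wells over nuclei in vehicle wells. Duplicate plates were run and medians reported. Lung cancer cell lines in 1536-well plates were dosed by pin tool one day after seeding, with one drug or with a fixed anchor-drug dose plus five library-drug doses (not always all listed) in √10 steps, and nuclei were counted after 5 days.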

[2] = compound: CCn1c(-c2nonc2N)nc2c(C#CC(C)(C)O)ncc(OC[C@H]3CCCNC3)c21 + Cc1nc(NC(=O)N2CCC[C@H]2C(N)=O)sc1-c1ccnc(C(C)(C)C(F)(F)F)c1 [Alpelisib] (partner 2 µM)
Method in brief: as §1

BAM7 + Dasatinib = compound: CCOC1=CC=CC=C1N=NC2=C(NN(C2=O)C3=NC(=CS3)C4=CC=CC=C4)C [BAM7] + Cc1nc(Nc2ncc(C(=O)Nc3c(C)cccc3Cl)s2)cc(N2CCN(CCO)CC2)n1 [Dasatinib] (partner 0.075 µM)
Method in brief: as §1

[3] = compound: CCn1c(-c2nonc2N)nc2c(C#CC(C)(C)O)ncc(OC[C@H]3CCCNC3)c21 + O=C(CCCCCCC(=O)Nc1ccccc1)NO [Vorinostat] (partner 1 µM)
Method in brief: as §1

Question: With LCLC-97TM1 as the cell line, how does the relative viability ([1]; first compound 0.01 µM) read?
Answer: 0.49

Question: And the relative viability ([1]; first compound 0.03162 µM)?
Answer: 0.502

Question: What about the relative viability ([1]; first compound 0.1 µM) of the same cell line?
Answer: 0.484

Question: What about the relative viability ([1]; first compound 0.3162 µM) of the same cell line?
Answer: 0.515

Question: And the relative viability ([1]; first compound 1 µM)?
Answer: 0.439

Question: And the relative viability ([2]; first compound 0.03162 µM)?
Answer: 0.278

Question: What about the relative viability ([2]; first compound 0.1 µM) of the same cell line?
Answer: 0.224

Question: What about the relative viability ([2]; first compound 0.3162 µM) of the same cell line?
Answer: 0.235

Question: What about the relative viability ([2]; first compound 1 µM) of the same cell line?
Answer: 0.257

Question: And the relative viability (BAM7 + Dasatinib; first compound 0.5 µM)?
Answer: 1.05

Question: What about the relative viability (BAM7 + Dasatinib; first compound 5 µM) of the same cell line?
Answer: 1.04

Question: And the relative viability (BAM7 + Dasatinib; first compound 15.81 µM)?
Answer: 0.881

Question: And the relative viability (BAM7 + Dasatinib; first compound 50 µM)?
Answer: 0.945

Question: And the relative viability ([3]; first compound 0.01 µM)?
Answer: 0.8

Question: And the relative viability ([3]; first compound 0.03162 µM)?
Answer: 0.722

Question: And the relative viability ([3]; first compound 0.1 µM)?
Answer: 0.774

Question: What about the relative viability ([3]; first compound 0.3162 µM) of the same cell line?
Answer: 0.624

Question: What about the relative viability ([3]; first compound 1 µM) of the same cell line?
Answer: 0.664

Question: What does the source list for NCI-H727?
Answer: relative viability ([1]; first compound 0.01 µM): 0.617; relative viability ([1]; first compound 0.03162 µM): 0.58; relative viability ([1]; first compound 0.1 µM): 0.535; relative viability ([1]; first compound 0.3162 µM): 0.551; relative viability ([1]; first compound 1 µM): 0.528; relative viability ([2]; first compound 0.01 µM): 0.576; relative viability ([2]; first compound 0.03162 µM): 0.527; relative viability ([2]; first compound 0.1 µM): 0.714; relative viability ([2]; first compound 0.3162 µM): 0.608; relative viability ([2]; first compound 1 µM): 0.479; relative viability (BAM7 + Dasatinib; first compound 0.5 µM): 0.351; relative viability (BAM7 + Dasatinib; first compound 15.81 µM): 0.469; relative viability (BAM7 + Dasatinib; first compound 50 µM): 0.312; relative viability ([3]; first compound 0.01 µM): 1.28; relative viability ([3]; first compound 0.03162 µM): 1.12; relative viability ([3]; first compound 0.1 µM): 1.19; relative viability ([3]; first compound 0.3162 µM): 1.09; relative viability ([3]; first compound 1 µM): 1.26

Question: What does the source list for NCI-H1355?
Answer: relative viability ([1]; first compound 0.01 µM): 0.451; relative viability ([1]; first compound 0.03162 µM): 0.379; relative viability ([1]; first compound 0.1 µM): 0.378; relative viability ([1]; first compound 0.3162 µM): 0.393; relative viability ([1]; first compound 1 µM): 0.424; relative viability ([2]; first compound 0.01 µM): 0.863; relative viability ([2]; first compound 0.03162 µM): 0.732; relative viability ([2]; first compound 0.1 µM): 0.786; relative viability ([2]; first compound 0.3162 µM): 0.825; relative viability ([2]; first compound 1 µM): 0.82; relative viability (BAM7 + Dasatinib; first compound 0.5 µM): 0.572; relative viability (BAM7 + Dasatinib; first compound 5 µM): 0.61; relative viability (BAM7 + Dasatinib; first compound 15.81 µM): 0.46; relative viability (BAM7 + Dasatinib; first compound 50 µM): 0.549; relative viability ([3]; first compound 0.01 µM): 0.659; relative viability ([3]; first compound 0.03162 µM): 0.549; relative viability ([3]; first compound 0.1 µM): 0.617; relative viability ([3]; first compound 0.3162 µM): 0.55; relative viability ([3]; first compound 1 µM): 0.619

Question: What does the source list for HOP-62?
Answer: relative viability ([1]; first compound 0.01 µM): 0.834; relative viability ([1]; first compound 0.03162 µM): 0.748; relative viability ([1]; first compound 0.1 µM): 0.695; relative viability ([1]; first compound 0.3162 µM): 0.769; relative viability ([1]; first compound 1 µM): 0.78; relative viability ([2]; first compound 0.01 µM): 0.966; relative viability ([2]; first compound 0.03162 µM): 1.12; relative viability ([2]; first compound 0.1 µM): 0.819; relative viability ([2]; first compound 0.3162 µM): 0.951; relative viability ([2]; first compound 1 µM): 1.13; relative viability (BAM7 + Dasatinib; first compound 0.5 µM): 0.636; relative viability (BAM7 + Dasatinib; first compound 5 µM): 0.727; relative viability (BAM7 + Dasatinib; first compound 15.81 µM): 0.601; relative viability (BAM7 + Dasatinib; first compound 50 µM): 0.649; relative viability ([3]; first compound 0.01 µM): 0.635; relative viability ([3]; first compound 0.03162 µM): 0.688; relative viability ([3]; first compound 0.1 µM): 0.644; relative viability ([3]; first compound 0.3162 µM): 0.555; relative viability ([3]; first compound 1 µM): 0.644

Question: Which relative viability ([1]; first compound 0.01 µM) does the source give for NCI-H2085 here?
Answer: 0.84

Question: What about the relative viability ([1]; first compound 0.03162 µM) of the same cell line?
Answer: 0.895

Question: And the relative viability ([1]; first compound 0.1 µM)?
Answer: 0.806

Question: And the relative viability ([1]; first compound 0.3162 µM)?
Answer: 0.72

Question: And the relative viability ([1]; first compound 1 µM)?
Answer: 0.656

Question: What about the relative viability ([2]; first compound 0.01 µM) of the same cell line?
Answer: 0.974

Question: And the relative viability ([2]; first compound 0.03162 µM)?
Answer: 0.866

Question: What about the relative viability ([2]; first compound 0.1 µM) of the same cell line?
Answer: 0.988

Question: What about the relative viability ([2]; first compound 0.3162 µM) of the same cell line?
Answer: 0.865

Question: What about the relative viability ([2]; first compound 1 µM) of the same cell line?
Answer: 0.84

Question: What about the relative viability (BAM7 + Dasatinib; first compound 0.5 µM) of the same cell line?
Answer: 0.237

Question: What about the relative viability (BAM7 + Dasatinib; first compound 5 µM) of the same cell line?
Answer: 0.211

Question: What about the relative viability (BAM7 + Dasatinib; first compound 15.81 µM) of the same cell line?
Answer: 0.229

Question: And the relative viability (BAM7 + Dasatinib; first compound 50 µM)?
Answer: 0.217

Question: And the relative viability ([3]; first compound 0.01 µM)?
Answer: 0.822

Question: And the relative viability ([3]; first compound 0.03162 µM)?
Answer: 0.785

Question: What about the relative viability ([3]; first compound 0.1 µM) of the same cell line?
Answer: 0.785

Question: And the relative viability ([3]; first compound 0.3162 µM)?
Answer: 0.712

Question: What about the relative viability ([3]; first compound 1 µM) of the same cell line?
Answer: 0.796
